Results published in patent EP0013144A1, “Substituted diphenylamine derivatives, compositions and herbicidal uses thereof, and processes for their preparation” (ICI AUSTRALIA LIMITED, priority 1978, dated 1980).

How the values were obtained:
Format in all cases: in vivo
Winter wheat [1] = experiment: Post-emergence herbicidal test, young pot plants (Example 33); design: key: 0 = 0-20% damage, 5 = complete kill, vs untreated control; details: after 14 days
Procedure: (§1) The compounds were formulated for test by mixing an appropriate amount with 5 ml of an emulsion prepared by diluting 160 ml of a solution containing 21.S g per litre of "Span" 80 and 78.2 g per litre of "Tween" 20 in methylcyclohexanone to 500 ml with water. "Span" 80 is a Trade Mark for a surface-active agent comprising sorbitan monolaurate. "Tween" 20 is a Trade Mark for a surface-active agent comprising a condensate of sorbitan monolaurate with 20 molar proportions of ethylene oxide. Each 5 ml emulsion containing a test compound was'then diluted to 40 ml with water and sprayed on to young pot plants (post-emergence test) of the species named in Table 5 below. Damage to test plants was assessed after 14 days on a scale of 0 to 5 where 0 is 0 to 20% damage and 5 is complete kill. In a test for pre-emergence herbicidal activity, seeds of the test plants were sown in a shallow slit formed in the surface of soil in fibre trays. The surface was then levelled and sprayed, and fresh soil then spread thinly over the sprayed surface. Assessment of herbicidal damage was carried out after 21 days using the same scale of 0 to 5 as the post-emergence test. In both cases the degree of herbicidal damage was assessed by comparison with untreated control plants. A dash (-) means that no experiment was carried out.

Wheat = experiment: Post-emergence herbicidal activity (Example 32); design: key: 0-3 scale: 0 = 0-25% damage, 3 = 75-99% kill, 3+ = 100% kill; details: 3 weeks after spraying
How it was run: (§2)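 Compounds were formulated as emulsifiable concentrates in toluene with surfactants (oils, waxy solids) or ball-milled aqueous suspensions (crystalline solids), then diluted with water. Glasshouse seedlings in soil, grown to about 10 to 12.5 cm, were sprayed. Damage was scored visually after 3 weeks against untreated controls on a 0–3 scale (3+ = 100% kill).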

Rape = experiment: Pre-emergence herbicidal test, fibre trays (Example 33); details: after 21 days
Procedure: as §1

Sugar beet [2] = experiment: as above; details: after 21 days
Procedure: as §1

Soy bean [3] = experiment: as above; details: after 21 days
Procedure: as §1

Cotton [4] = experiment: as above; details: after 21 days
Procedure: as §1

Winter wheat [5] = experiment: as above; details: after 21 days
Procedure: as §1

Ryegrass [6] = experiment: Pre-emergence herbicidal activity (Example 31); design: key: 0-3 scale: 0 = 0-25% damage, 3 = 75-99% kill, 3+ = 100% kill; details: after three weeks
How it was run: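 Glasshouse test: sown seed boxes sprayed pre-emergence with diluted formulation, unsprayed boxes as reference. Visual damage scored 0–3+ after 3 weeks.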

Rice = experiment: Pre-emergence herbicidal test, fibre trays (Example 33); design: key: 0 is 0 to 20% damage; 5 is complete kill; details: after 21 days
Procedure: as §1

Chenopodium album = experiment: Post-emergence herbicidal test, young pot plants (Example 33); details: after 14 days
Procedure: as §1

Amaranthus retroflexus = experiment: as above; details: after 14 days
Procedure: as §1

Sugar beet [7] = experiment: as above; details: after 14 days
Procedure: as §1

Ipomea purpurea = experiment: as above; details: after 14 days
Procedure: as §1

Soy bean [8] = experiment: as above; details: after 14 days
Procedure: as §1

Cotton [9] = experiment: as above; details: after 14 days
Procedure: as §1

Maize = experiment: Pre-emergence herbicidal test, fibre trays (Example 33); design: key: 0 = 0-20% damage, 5 = complete kill, vs untreated control; details: after 21 days
Procedure: as §1

Mustard = experiment: Post-emergence herbicidal activity (Example 32); details: 3 weeks after spraying
How it was run: as §2

Ipomea = experiment: Post-emergence herbicidal activity (Example 32); details: 3 weeks after spraying
How it was run: as §2

Japanese millet = experiment: Post-emergence herbicidal activity (Example 32); details: 3 weeks after spraying
How it was run: as §2

Ryegrass [10] = experiment: Post-emergence herbicidal activity (Example 32); details: 3 weeks after spraying
How it was run: as §2

Sunflower = experiment: Post-emergence herbicidal activity (Example 32); details: 3 weeks after spraying
How it was run: as §2

Structure (SMILES) | damage to test plants, Ww (Winter wheat [1]; 2.0 kg/ha) | damage to plants, Wh (Wheat; 1 kg/ha) | damage to plants, Wh (Wheat; 5 kg/ha) | herbicidal damage, Rp (Rape; 2.0 kg/ha) | herbicidal damage, Sb (Sugar beet [2]; 2.0 kg/ha) | herbicidal damage, Sy (Soy bean [3]; 2.0 kg/ha) | herbicidal damage, Ct (Cotton [4]; 2.0 kg/ha) | herbicidal damage, Ww (Winter wheat [5]; 2.0 kg/ha) | damage to plants, Rg (Ryegrass [6]; 1 kg/ha) | damage to plants, Rg (Ryegrass [6]; 5 kg/ha) | damage to plants, Ms (Mustard; 1 kg/ha) | damage to plants, Ms (Mustard; 5 kg/ha) | damage to plants, Ip (Ipomea; 1 kg/ha) | damage to plants, Ip (Ipomea; 5 kg/ha) | damage to plants, Jm (Japanese millet; 1 kg/ha) | damage to plants, Jm (Japanese millet; 5 kg/ha) | damage to plants, Rg (Ryegrass [10]; 1 kg/ha) | damage to plants, Rg (Ryegrass [10]; 5 kg/ha) | damage to plants, Sf (Sunflower; 1 kg/ha) | damage to plants, Sf (Sunflower; 5 kg/ha) | further results
COC(=O)C(C)Oc1ccc(N(C)c2ccc(Cl)cc2Cl)cc1 (stereo not shown) [Compound 1, Methyl 2-[4-(2,4-dichloro-N-methylanilino)phenoxy]-propionate] | 3 | 0 (0 represents 0 to 25% damage) | 1 | 2 | 0 (0 is 0 to 20% damage) | 2 | 0 (0 is 0 to 20% damage) | 0 (0 is 0 to 20% damage) | 1 | 3 (3 represents 75 to 99% kill) | 0 (0 represents 0 to 25% damage) | 0 (0 represents 0 to 25% damage) | 0 (0 represents 0 to 25% damage) | 0 (0 represents 0 to 25% damage) | 3+ (3+ represents 100% kill) | 3+ (3+ represents 100% kill) | 3+ (3+ represents 100% kill) | 3+ (3+ represents 100% kill) | 0 (0 represents 0 to 25% damage) | 0 (0 represents 0 to 25% damage) | herbicidal damage, Rc (Rice; 2.0 kg/ha): 0 (0 is 0 to 20% damage); damage to test plants, Ca (Chenopodium album; 2.0 kg/ha): 3; damage to test plants, Am (Amaranthus retroflexus; 2.0 kg/ha): 2; damage to test plants, Sb (Sugar beet [7]; 2.0 kg/ha): 3; damage to test plants, Ip (Ipomea purpurea; 2.0 kg/ha): 0 (0 is 0 to 20% damage); damage to test plants, Sy (Soy bean [8]; 2.0 kg/ha): 1; damage to test plants, Ct (Cotton [9]; 2.0 kg/ha): 1; herbicidal damage, Mz (Maize; 2.0 kg/ha): 0 (0 is 0 to 20% damage)
COC(=O)C(C)Oc1ccc(N(C)c2ccc(Cl)cc2[N+](=O)[O-])cc1 (stereo not shown) [Compound 27] | 4 | 2 | 3+ (3+ represents 100% kill) | 0 (0 is 0 to 20% damage) | 0 (0 is 0 to 20% damage) | 0 (0 is 0 to 20% damage) | 0 (0 is 0 to 20% damage) | 1 | 1 | 3 (3 represents 75 to 99% kill) | 0 (0 represents 0 to 25% damage) | 0 (0 represents 0 to 25% damage) | 0 (0 represents 0 to 25% damage) | 0 (0 represents 0 to 25% damage) | 3+ (3+ represents 100% kill) | 3+ (3+ represents 100% kill) | 3+ (3+ represents 100% kill) | 3+ (3+ represents 100% kill) | 0 (0 represents 0 to 25% damage) | 0 (0 represents 0 to 25% damage) | herbicidal damage, Rc (Rice; 2.0 kg/ha): 5; damage to test plants, Ca (Chenopodium album; 2.0 kg/ha): 0 (0 is 0 to 20% damage); damage to test plants, Am (Amaranthus retroflexus; 2.0 kg/ha): 0 (0 is 0 to 20% damage); damage to test plants, Sb (Sugar beet [7]; 2.0 kg/ha): 0 (0 is 0 to 20% damage); damage to test plants, Ip (Ipomea purpurea; 2.0 kg/ha): 0 (0 is 0 to 20% damage); damage to test plants, Sy (Soy bean [8]; 2.0 kg/ha): 0 (0 is 0 to 20% damage); damage to test plants, Ct (Cotton [9]; 2.0 kg/ha): 0 (0 is 0 to 20% damage); herbicidal damage, Mz (Maize; 2.0 kg/ha): 1
COC(=O)C(C)Oc1ccc(Nc2ccc(Cl)cc2[N+](=O)[O-])cc1 (stereo not shown) [Compound 28] | – | 3 (3 represents 75 to 99% kill) | 3+ (3+ represents 100% kill) | – | – | – | – | – | 3 (3 represents 75 to 99% kill) | 3+ (3+ represents 100% kill) | 0 (0 represents 0 to 25% damage) | 0 (0 represents 0 to 25% damage) | 0 (0 represents 0 to 25% damage) | 0 (0 represents 0 to 25% damage) | 3+ (3+ represents 100% kill) | 3+ (3+ represents 100% kill) | 3+ (3+ represents 100% kill) | 3+ (3+ represents 100% kill) | 0 (0 represents 0 to 25% damage) | 0 (0 represents 0 to 25% damage) | damage to test plants, Ww (Winter wheat [1]; 1.0 kg/ha): 4; herbicidal damage, Rp (Rape; 1.0 kg/ha): 0 (0 is 0 to 20% damage); herbicidal damage, Sb (Sugar beet [2]; 1.0 kg/ha): 0 (0 is 0 to 20% damage); herbicidal damage, Sy (Soy bean [3]; 1.0 kg/ha): 0 (0 is 0 to 20% damage); herbicidal damage, Ct (Cotton [4]; 1.0 kg/ha): 0 (0 is 0 to 20% damage); herbicidal damage, Ww (Winter wheat [5]; 1.0 kg/ha): 2; herbicidal damage, Rc (Rice; 1.0 kg/ha): 1; damage to test plants, Ca (Chenopodium album; 1.0 kg/ha): 0 (0 is 0 to 20% damage); damage to test plants, Am (Amaranthus retroflexus; 1.0 kg/ha): 0 (0 is 0 to 20% damage); damage to test plants, Sb (Sugar beet [7]; 1.0 kg/ha): 1; damage to test plants, Ip (Ipomea purpurea; 1.0 kg/ha): 0 (0 is 0 to 20% damage); damage to test plants, Sy (Soy bean [8]; 1.0 kg/ha): 0 (0 is 0 to 20% damage); damage to test plants, Ct (Cotton [9]; 1.0 kg/ha): 0 (0 is 0 to 20% damage); herbicidal damage, Mz (Maize; 1.0 kg/ha): 0 (0 is 0 to 20% damage)
COC(=O)C(C)Oc1ccc(Nc2ccc(Br)cc2[N+](=O)[O-])cc1 (stereo not shown) [Compound 29] | 4 | 2 | 3+ (3+ represents 100% kill) | 0 (0 is 0 to 20% damage) | 0 (0 is 0 to 20% damage) | 0 (0 is 0 to 20% damage) | 0 (0 is 0 to 20% damage) | 3 | 2 | 3 (3 represents 75 to 99% kill) | 0 (0 represents 0 to 25% damage) | 0 (0 represents 0 to 25% damage) | 0 (0 represents 0 to 25% damage) | 0 (0 represents 0 to 25% damage) | 3 (3 represents 75 to 99% kill) | 3+ (3+ represents 100% kill) | 3 (3 represents 75 to 99% kill) | 3+ (3+ represents 100% kill) | 0 (0 represents 0 to 25% damage) | 0 (0 represents 0 to 25% damage) | herbicidal damage, Rc (Rice; 2.0 kg/ha): 3; damage to test plants, Ca (Chenopodium album; 2.0 kg/ha): 0 (0 is 0 to 20% damage); damage to test plants, Am (Amaranthus retroflexus; 2.0 kg/ha): 0 (0 is 0 to 20% damage); damage to test plants, Sb (Sugar beet [7]; 2.0 kg/ha): 0 (0 is 0 to 20% damage); damage to test plants, Ip (Ipomea purpurea; 2.0 kg/ha): 0 (0 is 0 to 20% damage); damage to test plants, Sy (Soy bean [8]; 2.0 kg/ha): 2; damage to test plants, Ct (Cotton [9]; 2.0 kg/ha): 0 (0 is 0 to 20% damage); herbicidal damage, Mz (Maize; 2.0 kg/ha): 1
